{"source": "patent US11576381B2", "about": "“Composition and a method of using the composition to increase wheat yield” (priority 2019, dated 2023)", "key": {"QPE-tolerant wheat": {"tested_on": "QPE-tolerant wheat", "assay": "Yield of QPE-tolerant wheat in bushels per acre", "format": "in vivo", "experimental": "(§1) Yield of QPE-tolerant wheat in bushels per acre was measured under the following conditions: where no QPE was applied, where QPE was applied alone, where one or more broadleaf herbicides were applied, and where a combination of a QPE source and a broadleaf herbicide were applied together. For each test condition, the level of both grass control and broadleaf control was recorded. Finally, the application rate of each active substance was recorded. One QPE source is Aggressor™ which comprises Quizalofop-P-ethyl 10.3%."}, "broadleaf weeds": {"tested_on": "broadleaf weeds", "assay": "Broadleaf weed control in QPE-tolerant wheat treated with herbicides", "format": "in vivo", "experimental": "as §1"}, "grasses": {"tested_on": "grasses", "assay": "Grass control in QPE-tolerant wheat treated with herbicides", "format": "in vivo", "experimental": "as §1"}, "[1]": {"details": "soil; cited from earlier work"}, "[2]": {"details": "Treatment B Rate/Acre .60 oz/acre"}, "[3]": {"details": "Treatment B Rate/Acre 2 oz/acre"}, "[4]": {"details": "Treatment B Rate/Acre 4.75/acre"}, "[5]": {"details": "Treatment B Rate/Acre .90 oz/acre"}, "[6]": {"details": "Treatment B Rate/Acre 3 fl oz/acre"}, "[7]": {"details": "Treatment B Rate/Acre 4 fl oz/acre"}, "[8]": {"details": "Treatment B Rate/Acre 5 fl oz/acre"}, "[9]": {"details": "Treatment B Rate/Acre .66 oz/acre"}, "[10]": {"details": "Treatment B Rate/Acre 1.00 lb ai/acre"}, "[11]": {"details": "Treatment B Rate/Acre .50 lb ai/acre"}, "[12]": {"details": "Treatment B Rate/Acre .30 oz/acre"}}, "note": "“And” between values parts separate entries of the source, which are not always exact repeats. Equal values may be shown once."}
{"smiles": "COc1nc(C)nc(NC(=O)NS(=O)(=O)c2ccccc2CCC(F)(F)F)n1", "note": "[Prosulfuron]", "values": [{"measurement": "Yield", "setting": "QPE-tolerant wheat; [2]", "result": 59.2, "unit": "Bu/acre"}, {"measurement": "Broadleaf Weed Control", "setting": "broadleaf weeds; [2]", "result": 85, "unit": "%"}, {"measurement": "Grass Control", "setting": "grasses; [2]", "result": 0, "unit": "%"}]}
{"smiles": "COc1nn(C(=O)NS(=O)(=O)c2ccccc2OC(F)(F)F)c(=O)n1C", "note": "[Flucarbazone]", "values": [{"measurement": "Yield", "setting": "QPE-tolerant wheat; [3]", "result": 67.3, "unit": "Bu/acre"}, {"measurement": "Broadleaf Weed Control", "setting": "broadleaf weeds; [3]", "result": 55, "unit": "%"}, {"measurement": "Grass Control", "setting": "grasses; [3]", "result": 65, "unit": "%"}]}
{"smiles": "COc1cc(OC)nc(NC(=O)NS(=O)(=O)c2cc(CNS(C)(=O)=O)ccc2C(=O)O)n1", "note": "[Mesosulfuron]", "values": [{"measurement": "Yield", "setting": "QPE-tolerant wheat; [4]", "result": 60.4, "unit": "Bu/acre"}, {"measurement": "Broadleaf Weed Control", "setting": "broadleaf weeds; [4]", "result": 50, "unit": "%"}, {"measurement": "Grass Control", "setting": "grasses; [4]", "result": 35, "unit": "%"}]}
{"smiles": "CCCOc1nn(C(=O)[N-]S(=O)(=O)c2ccccc2C(=O)OC)c(=O)n1C.[Na+]", "note": "[Propoxycarbazone]", "values": [{"measurement": "Yield", "setting": "QPE-tolerant wheat; [5]", "result": 63.2, "unit": "Bu/acre"}, {"measurement": "Broadleaf Weed Control", "setting": "broadleaf weeds; [5]", "result": 65, "unit": "%"}, {"measurement": "Grass Control", "setting": "grasses; [5]", "result": 45, "unit": "%"}]}
{"smiles": "COc1cc(OC)n2nc(NS(=O)(=O)c3c(C(F)(F)F)ccnc3OC)nc2n1", "note": "[Pyroxsulam]", "values": [{"measurement": "Yield", "setting": "QPE-tolerant wheat; [3]", "result": 60.3, "unit": "Bu/acre"}, {"measurement": "Broadleaf Weed Control", "setting": "broadleaf weeds; [3]", "result": 30, "unit": "%"}, {"measurement": "Grass Control", "setting": "grasses; [3]", "result": 70, "unit": "%"}]}
{"smiles": "COc1c(Cl)ccc(Cl)c1C(=O)O", "note": "[Dicamba]", "values": [{"measurement": "Yield", "setting": "QPE-tolerant wheat; [6]", "result": 56.7, "unit": "Bu/acre"}, {"measurement": "Yield", "setting": "QPE-tolerant wheat; [7]", "result": 57.9, "unit": "Bu/acre"}, {"measurement": "Yield", "setting": "QPE-tolerant wheat; [8]", "result": 58.4, "unit": "Bu/acre"}, {"measurement": "Broadleaf Weed Control", "setting": "broadleaf weeds; [6]", "result": 90, "unit": "%"}, {"measurement": "Broadleaf Weed Control", "setting": "broadleaf weeds; [7]", "result": 93, "unit": "%"}, {"measurement": "Broadleaf Weed Control", "setting": "broadleaf weeds; [8]", "result": 96, "unit": "%"}, {"measurement": "Grass Control", "setting": "grasses; [6]", "result": 0, "unit": "%"}, {"measurement": "Grass Control", "setting": "grasses; [7]", "result": 0, "unit": "%"}, {"measurement": "Grass Control", "setting": "grasses; [8]", "result": 0, "unit": "%"}]}
{"smiles": "CCS(=O)(=O)c1nc2ccccn2c1S(=O)(=O)NC(=O)Nc1nc(OC)cc(OC)n1", "note": "[Sulfosulfuron]", "values": [{"measurement": "Broadleaf Weed Control", "setting": "broadleaf weeds; [9]", "result": 60, "unit": "%"}, {"measurement": "Grass Control", "setting": "grasses; [9]", "result": 55, "unit": "%"}]}
{"smiles": "CNC.O=C(O)COc1ccc(Cl)cc1Cl", "note": "[2,4-D Amine]", "values": [{"measurement": "Yield", "setting": "QPE-tolerant wheat; [10]", "result": 56.8, "unit": "Bu/acre"}, {"measurement": "Yield", "setting": "QPE-tolerant wheat; [11]", "result": 55.7, "unit": "Bu/acre"}, {"measurement": "Broadleaf Weed Control", "setting": "broadleaf weeds; [10]", "result": 90, "unit": "%"}, {"measurement": "Broadleaf Weed Control", "setting": "broadleaf weeds; [11]", "result": 75, "unit": "%"}, {"measurement": "Grass Control", "setting": "grasses; [10]", "result": 0, "unit": "%"}, {"measurement": "Grass Control", "setting": "grasses; [11]", "result": 0, "unit": "%"}]}
{"smiles": "COc1nc(C)nc(N(C)C(=O)NS(=O)(=O)c2ccccc2C(=O)O)n1", "note": "[Tribenuron]", "values": [{"measurement": "Yield", "setting": "QPE-tolerant wheat; [12]", "result": 58.4, "unit": "Bu/acre"}, {"measurement": "Broadleaf Weed Control", "setting": "broadleaf weeds; [12]", "result": 93, "unit": "%"}, {"measurement": "Grass Control", "setting": "grasses; [12]", "result": 0, "unit": "%"}]}
{"smiles": "CCOC(=O)[C@@H](C)Oc1ccc(Oc2cnc3cc(Cl)ccc3n2)cc1", "note": "[Quizalofop-p-ethyl]", "values": [{"measurement": "Koc", "setting": "[1]", "result": "510 and 570"}]}
{"smiles": "CNC.Cc1cc(Cl)ccc1OCC(=O)O", "note": "[MCPA Amine]", "values": [{"measurement": "Yield", "setting": "QPE-tolerant wheat; [10]", "result": 56.9, "unit": "Bu/acre"}, {"measurement": "Yield", "setting": "QPE-tolerant wheat; [11]", "result": 52.4, "unit": "Bu/acre"}, {"measurement": "Broadleaf Weed Control", "setting": "broadleaf weeds; [10]", "result": 93, "unit": "%"}, {"measurement": "Broadleaf Weed Control", "setting": "broadleaf weeds; [11]", "result": 78, "unit": "%"}, {"measurement": "Grass Control", "setting": "grasses; [10]", "result": 0, "unit": "%"}, {"measurement": "Grass Control", "setting": "grasses; [11]", "result": 0, "unit": "%"}]}
